Earlier results, collected in US11219621B2, “Methods for treating immunodeficiency disease” (X4 Pharmaceuticals, Inc., priority 2015, dated 2022).

Biological target: T1, CXCR7 (Homo sapiens, UniProt P25106)
T1 construct: expressed in transfected cells
Design: Inhibition of SDF-1α binding to CXCR7: dose or concentration left out as unconfirmed
Conditions: cited from earlier work

T1 sequence (P25106 whole entry): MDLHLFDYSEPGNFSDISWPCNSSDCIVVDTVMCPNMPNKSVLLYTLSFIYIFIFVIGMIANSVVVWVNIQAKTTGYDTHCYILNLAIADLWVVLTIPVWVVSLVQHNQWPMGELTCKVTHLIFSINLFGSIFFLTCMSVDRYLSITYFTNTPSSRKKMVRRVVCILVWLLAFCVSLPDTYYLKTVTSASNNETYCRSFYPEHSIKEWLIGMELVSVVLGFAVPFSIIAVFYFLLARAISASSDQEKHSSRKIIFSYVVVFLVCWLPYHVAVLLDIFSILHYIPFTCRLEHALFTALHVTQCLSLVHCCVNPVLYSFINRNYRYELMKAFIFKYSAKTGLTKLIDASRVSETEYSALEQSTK

## NCCCCN(Cc1nc2ccccc2[nH]1)[C@H]1CCCc2cccnc21 [X4P-001]
CXCR7, Cf2Th.CXCR7, SDF-1α/CXCL12, ligand binding, read-out: IC50 AMD11070
  IC50: > 10 µM
  Inhibitory effect on SDF-1α binding to CXCR7: little or no inhibitory effect
The maximum concentration tested
  Inhibition of SDF-1α binding to CXCR7: did not inhibit
